Legend:
[1] = system: Plutella xylostella; assay: Insecticidal test on Plutella xylostella (dip of Chinese cabbage seedlings with laid eggs); format: in vivo; settings: 144 h, seedlings with laid eggs dipped about 30 seconds, 25° C., 6 days after dip treatment, criteria of Test Example 2, read-out: insecticidal efficacy (corrected mortality rate) activity level
Source text: Insecticidal Test on Plutella xylostella
Adults of Plutella xylostella were released onto Chinese cabbage seedlings and allowed to lay eggs thereon. At 2 days after the release of the adults, the Chinese cabbage seedlings with laid eggs were dipped for about 30 seconds in agrochemical dispersions diluted to 500 ppm, each of which contained a different kind of oxime group-containing quinoline compound represented by the general formula (1) of the present invention as an active ingredient. After air-dried, the seedlings were kept in a thermostatic chamber at 25° C. At 6 days after the dip treatment, the number of hatched larvae per plot was counted, the mortality rate was calculated according to the formula shown below, and the insecticidal efficacy was evaluated according to the criteria of Test Example 2. This test was conducted in triplicate using 10 adults of Plutella xylostella per plot. Corrected mortality rate (%)=100×(Number of hatched larvae in a non-treatment plot−Number of hatched larvae in a treatment plot)/Number of hatched larvae in a non-treatment plot [Math. 3]

[2] = system: Laodelphax striatellus; assay: Insecticidal test on Laodelphax striatellus (rice seedling dip); format: in vivo; settings: 192 h, rice seedlings dipped 30 seconds, 3rd-instar larvae, 8 days after inoculation, read-out: insecticidal efficacy (corrected mortality rate) activity level
Source text: Insecticidal Test on Laodelphax striatellus
The oxime group-containing quinoline compounds represented by the general formula (1) of the present invention or salts thereof were separately dispersed in water and diluted to 500 ppm. Rice plant seedlings (variety: Nihonbare) were dipped in the agrochemical dispersions for 30 seconds. After air-dried, each seedling was put into a separate glass test tube and inoculated with ten 3rd-instar larvae of Laodelphax striatellus, and then the glass test tubes were capped with cotton plugs. At 8 days after the inoculation, the numbers of surviving larvae and dead larvae were counted, the corrected mortality rate was calculated according to the formula shown below, and the insecticidal efficacy was evaluated according to the criteria shown below. Corrected mortality rate (%)=100×(Survival rate in a non-treatment plot−Survival rate in a treatment plot)/Survival rate in a non-treatment plot [Math. 2] Criteria A: the corrected mortality rate is 100%. B: the corrected mortality rate is 90 to 99%. C: the corrected mortality rate is 80 to 89%. D: the corrected mortality rate is 50 to 79%.

Row | SMILES | mortality at 500 ppm [1] [%] | mortality at 500 ppm [2] [%]
1 | CCS(=O)(=O)c1cc2cc(/C=N/O)ccc2nc1-c1nc2cc(C(F)(F)F)cnc2n1C [Compound 1-1, (E)-3-(ethylsulfonyl)-2-(3-methyl-6-(trifluoromethyl)-3H-imidazo[4,5-b]pyridin-2-yl)quinoline-6-carbaldehyde oxime] | 100 | 100
2 | CCS(=O)(=O)c1cc2ccc(/C=N/OCSC)cc2nc1-c1nc2cc(C(F)(F)F)cnc2n1C [Compound 2-19, 3-(ethylsulfonyl)-2-(3-methyl-6-(trifluoromethyl)-3H-imidazo[4,5-b]pyridin-2-yl)quinoline-7-carbaldehyde O-(methylthiomethyl)oxime] | 100 | 100
3 | CCS(=O)(=O)c1cc2cc(/C(C)=N/OCC(F)(F)F)ccc2nc1-c1nc2cc(SC(F)(F)F)ccc2o1 [Compound 3-8, 1-(3-(ethylsulfonyl)-2-(5-(trifluoromethylthio)benzo[d]oxazol-2-yl)quinolin-6-yl)ethanone O-(2,2,2-trifluoroethyl)oxime] | 100 | 100
4 | CCS(=O)(=O)c1cc2ccc(/C=N/OCS(C)(=O)=O)cc2nc1-c1nc2cc(C(F)(F)F)cnc2n1C [Compound 2-25, 3-(ethylsulfonyl)-2-(3-methyl-6-(trifluoromethyl)-3H-imidazo[4,5-b]pyridin-2-yl)quinoline-7-carbaldehyde O-(methylsulfonylmethyl)oxime] | 100 | 100
5 | CCS(=O)(=O)c1cc2ccc(/C=N/OC[S+](C)[O-])cc2nc1-c1nc2cc(C(F)(F)F)cnc2n1C (centres unmarked) [Compound 2-24, 3-(ethylsulfonyl)-2-(3-methyl-6-(trifluoromethyl)-3H-imidazo[4,5-b]pyridin-2-yl)quinoline-7-carbaldehyde O-(methylsulfinylmethyl)oxime] | 100 | 100
6 | CCS(=O)(=O)c1cc2cc(/C=N/OCC(F)(F)F)ccc2nc1-c1nc2cc(C(F)(F)F)cnc2n1C [Compound 1-7, (E)-3-(ethylsulfonyl)-2-(3-methyl-6-(trifluoromethyl)-3H-imidazo[4,5-b]pyridin-2-yl)quinoline-6-carbaldehyde O-(2,2,2-trifluoroethyl)oxime] | 100 | 100
7 | CCS(=O)(=O)c1cc2cc(/C(C)=N/O)ccc2nc1-c1nc2cc(SC(F)(F)F)ccc2o1 [Compound 3-2, 1-(3-(ethylsulfonyl)-2-(5-(trifluoromethylthio)benzo[d]oxazol-2-yl)quinolin-6-yl)ethanone oxime] | 100 | 100

From patent US10435411B2, “Oxime group-containing quinoline compound, N-oxide thereof or salt thereof, agricultural and horticultural insecticide comprising the compound, and method for using the insecticide” (Nihon Nohyaku Co., Ltd., priority 2016, dated 2019)
